From patent publication EP4818178A1, “PREPARATION AND USE OF PYRIMIDOTHIOPYRANONE KRAS MUTANT PROTEIN INHIBITOR” (Ya Therapeutics Inc, priority 2024, dated 2025)
pIC50: −log10 of the molar value.

What was measured:
KRasG12D = KRasG12D (Homo sapiens, UniProt P01116, G12D); assay: KRAS inhibitory activity test, TR-FRET (inhibition of binding of KRasG12D to GTP, SOS/GTP nucleotide exchange); format: biochemical; conditions: read-out: IC50 values of the compounds for inhibiting KRAS enzymes, G12D
Method in brief: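 KRasG12D preloaded with Bodipy-GDP plus Tb-streptavidin (3 nM Kras/0.5 nM Tb-SA/30 nM Bodipy-GDP) incubated 1 h at rt with compound (10-point 3-fold series). SOS/GTP mixture then added for 1 h at rt. TR-FRET signal read; IC50 calculated.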

[1] = test system: p-ERK in NCI-H727 (G12V) cells; assay: Cellular p-ERK inhibition assay (HTRF); format: cell-based; conditions: Homo sapiens, 1 hour with compound, read-out: IC50 (nM) of the compounds on the inhibition of p-ERK in tumor cells, NCI-H72 7
Procedure: (§1) Cells were seeded in clear 96-well cell culture plates, with 80 µL of cell suspension per well, containing 8000 cells per well. The plates were incubated overnight at 37°C using a CO2 incubator. 2 µL of the compound was added to 78 µL of cell culture medium, mixed well, and then 20 µL of the compound solution was added to the corresponding wells of the cell culture plate. The plates were returned to the CO2 incubator for another hour. After incubation, the cell supernatant was discarded, and 50 µL of the […] was added to the cell culture plate. Add 1X cell lysis buffer to each well and incubate at room temperature with shaking for 30 minutes. Dilute Phospho-ERK1/2 Eu Cryptate antibody and Phospho-ERK1/2 d2 antibody 20-fold using detection buffer. Transfer 16 µL of cell lysis supernatant to each well in a new 384 white microplate, then add 2 µL of Phospho-ERK1/2 Eu Cryptate antibody diluent and 2 µL of Phospho-ERK1/2 d2 antibody diluent. Incubate at room temperature for at least 4 hours. After incubation, read the HTRF excitation (320 nm) and emission (615 nm, 665 nm) using a multilabel analyzer. Calculate the IC50 of the analyte. "++++" indicates IC50≤ 10 nM; "+++" indicates 10 nM < IC50≤ 100 nM; "++" indicates 100 nM < IC50≤ 2000 nM; "+" indicates 2000 nM < IC50. Table 2. IC50 (nM) of the compounds on the inhibition of p-ERK in tumor cells.

[2] = test system: p-ERK in PSN-1 (G12R) cells; assay: Cellular p-ERK inhibition assay (HTRF); format: cell-based; conditions: Homo sapiens, PSN1, 1 hour with compound, read-out: IC50 (nM) of the compounds on the inhibition of p-ERK in tumor cells, PSN-1
Procedure: as §1

[3] = test system: p-ERK in NCI-H358 (G12C) cells; assay: Cellular p-ERK inhibition assay (HTRF); format: cell-based; conditions: Homo sapiens, 1 hour with compound, read-out: IC50 (nM) of the compounds on the inhibition of p-ERK in tumor cells, NCI-H35 8
Procedure: as §1

[4] = test system: p-ERK in HCT116 (G13D) cells; assay: Cellular p-ERK inhibition assay (HTRF); format: cell-based; conditions: Homo sapiens, HCT-116, 1 hour with compound, read-out: IC50 (nM) of the compounds on the inhibition of p-ERK in tumor cells, HCT11 6
Procedure: as §1

[5] = test system: p-ERK in A549 (G12S) cells; assay: Cellular p-ERK inhibition assay (HTRF); format: cell-based; conditions: 1 hour with compound
Procedure: as §1

[6] = test system: p-ERK in NCI-H460 (Q61H) cells; assay: Cellular p-ERK inhibition assay (HTRF); format: cell-based; conditions: Homo sapiens, 1 hour with compound, read-out: IC50 (nM) of the compounds on the inhibition of p-ERK in tumor cells, NCI-H46 0
Procedure: as §1

[7] = test system: p-ERK in MKN1 (WTdep) cells; assay: Cellular p-ERK inhibition assay (HTRF); format: cell-based; conditions: Homo sapiens, MKN-1, 1 hour with compound, read-out: IC50 (nM) of the compounds on the inhibition of p-ERK in tumor cells, MKN 1
Procedure: as §1

[8] = test system: p-ERK in AsPC-1 (G12D) cells; assay: Cellular p-ERK inhibition assay (HTRF); format: cell-based; conditions: Homo sapiens, ASPC1, 1 hour with compound, read-out: IC50 (nM) of the compounds on the inhibition of p-ERK in tumor cells, AsPC-1
Procedure: as §1

Chain of KRasG12D (P01116 1-188 isoform P01116-2 G12D): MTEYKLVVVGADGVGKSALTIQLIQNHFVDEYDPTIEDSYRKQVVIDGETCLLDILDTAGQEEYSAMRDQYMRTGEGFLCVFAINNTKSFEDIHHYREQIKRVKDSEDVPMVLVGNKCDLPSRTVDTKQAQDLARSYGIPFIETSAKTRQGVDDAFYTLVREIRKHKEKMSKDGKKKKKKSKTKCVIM

Question: What does the source list for `Cc1cc(N)c(F)c(C2Cc3nc(OC[C@@]45CCCN4C[C@H](F)C5)nc(N4C[C@H]5CC[C@@H](C4)N5)c3CS2(=O)=O)c1C(F)(F)F` (stereo partly drawn) [Compound 1]?
Answer: pIC50 (KRasG12D): ≥ 8.00; IC50 [1]: ≤ 10 nM; IC50 [2]: 100 to 2000 nM; IC50 [3]: ≤ 10 nM; IC50 [4]: ≤ 10 nM; IC50 (nM) of the compounds on the inhibition of p-ERK in tumor cells, A54 9 [5]: +++ +; IC50 [6]: ≤ 10 nM; IC50 [7]: ≤ 10 nM; IC50 [8]: ≤ 10 nM
